Source: patent US10774064B2 (Cadent Therapeutics, Inc., priority 2016, dated 2020)

Target: T1, small-conductance Ca2+-activated K+ channels (SK channels, subtype 2) (Homo sapiens, UniProt Q9H2S1)
T1 construct: expressed in transfected cells; host or cells: HEK293
Test: whole-cell patch-clamp of ionic current through SK2 channels in HEK293 cells (SC100)
Type: cell-based
Settings: concentration that increases the basal current by 100%, HEK293 cells expressing SK2 channels; for SC100 (μM): whole-cell patch-clamp
Procedure, shortened: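 SC100, the concentration doubling basal current (a 100% increase), was taken from SK2 currents recorded by whole-cell patch-clamp in SK2-expressing HEK293 cells.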

| SMILES | SC100 | SC100 (μM) |
| --- | --- | --- |
| Cc1cn(-c2cc(OC3COC3)cc(NC3CCC(F)(F)CC3)n2)nc1CF [Compound 345, N-(4,4-difluorocyclohexyl)-6-(3-(fluoromethyl)-4-methyl-1H-pyrazol-1-yl)-4-(oxetan-3-yloxy)pyridin-2-amine] | ++ (++ means 200 nM-1000 nM) |  |
| FCc1ccn(-c2nc(NC3CCC(F)(F)CC3)cc(OC3CC(F)C3)n2)n1 (centres unmarked) [Compound 346, N-(4,4-difluorocyclohexyl)-6-(3-fluorocyclobutoxy)-2-(3-(fluoromethyl)-1H-pyrazol-1-yl)pyrimidin-4-amine] | + (+ means >1 uM) |  |
| FCc1ccn(-c2nc(NC3CCC(F)(F)CC3)cc(OC3CC(F)(F)C3)n2)n1 [Compound 347, 6-(3,3-difluorocyclobutoxy)-N-(4,4-difluorocyclohexyl)-2-(3-(fluoromethyl)-1H-pyrazol-1-yl)pyrimidin-4-amine] | ++ (++ means 200 nM-1000 nM) |  |
| CC(C)C(=O)NCc1cc(NC2CCC(F)(F)CC2)nc(-n2ccc(CF)n2)c1 [Compound 348, N-((2-((4,4-difluorocyclohexyl)amino)-6-(3-(fluoromethyl)-1H-pyrazol-1-yl)pyridin-4-yl)methyl)isobutyramide] | ++ (++ means 200 nM-1000 nM) |  |
| CC(=O)NCc1cc(NC2CCC(F)(F)CC2)nc(-n2cc(C)c(CF)n2)c1 [Compound 349, N-((2-((4,4-difluorocyclohexyl)amino)-6-(3-(fluoromethyl)-4-methyl-1H-pyrazol-1-yl)pyridin-4-yl)methyl)acetamide] | ++ (++ means 200 nM-1000 nM) |  |
| Cc1cc(C)n(-c2nc(NC3CCCC(F)(F)C3)cc(C(N)=O)n2)n1 (centres unmarked) [Compound 350, 6-((3,3-difluorocyclohexyl)amino)-2-(3,5-dimethyl-1H-pyrazol-1-yl)pyrimidine-4-carboxamide] | + (+ means >1 uM) |  |
| Cc1cc(C)n(-c2nc(N[C@H]3CCCC(F)(F)C3)cc([C@H](C)O)n2)n1 [Compound 355, (−)-1-(6-(((S)-3,3-difluorocyclohexyl)amino)-2-(3,5-dimethyl-1H-pyrazol-1-yl)pyrimidin-4-yl)ethan-1-ol] | + (+ means >1 uM) |  |
| Cc1cc(C)n(-c2nc(NC3CCCC(F)(F)C3)cc(C(C)(C)O)n2)n1 (centres unmarked) [Compound 356, 2-(6-((3,3-difluorocyclohexyl)amino)-2-(3,5-dimethyl-1H-pyrazol-1-yl)pyrimidin-4-yl)propan-2-ol] | + (+ means >1 uM) |  |
| Cc1cc(C)n(-c2nc(CO)cc(NC3CCCC(F)(F)C3)n2)n1 (centres unmarked) [Compound 357, (6-((3,3-difluorocyclohexyl)amino)-2-(3,5-dimethyl-1H-pyrazol-1-yl)pyrimidin-4-yl)methanol] | + (+ means >1 uM) |  |
| Cc1cc(C)n(-c2nc(CF)cc(NC3CCCC(F)(F)C3)n2)n1 (centres unmarked) [Compound 358, N-(3,3-difluorocyclohexyl)-2-(3,5-dimethyl-1H-pyrazol-1-yl)-6-(fluoromethyl)pyrimidin-4-amine] | + (+ means >1 uM) |  |
| COc1cc(NC2CCC(F)(F)CC2)nc(-n2nc(C)cc2C)n1 [Compound 360, N-(4,4-difluorocyclohexyl)-2-(3,5-dimethyl-1H-pyrazol-1-yl)-6-methoxypyrimidin-4-amine] | ++ (++ means 200 nM-1000 nM) |  |
| COc1cc(NC2CCC(F)(F)CC2)nc(-c2nc(C)cs2)n1 [Compound 361, N-(4,4-difluorocyclohexyl)-6-methoxy-2-(4-methylthiazol-2-yl)pyrimidin-4-amine] | ++ (++ means 200 nM-1000 nM) |  |
| FC1(F)CCC(Nc2cc(N3CCOCC3)nc(-n3ccc(C4CC4)n3)n2)CC1 [Compound 365, 2-(3-cyclopropyl-1H-pyrazol-1-yl)-N-(4,4-difluorocyclohexyl)-6-morpholinopyrimidin-4-amine] | ++ (++ means 200 nM-1000 nM) |  |
| Cc1csc(-c2nc(NC3CCC(F)(F)CC3)cc(N3CCN(C(C)C)CC3)n2)n1 [IN10864-031-P1] |  | +++ (+++ means <200 nM) |
| Cc1csc(-c2nc(NC3CCC(F)(F)CC3)cc(N3CCC(F)CC3)n2)n1 [IN10864-33.P1] |  | ++ (++ means 200 nM-1000 nM) |
| Cc1csc(-c2nc(NC3CCC(F)(F)CC3)cc(N3CCCOCC3)n2)n1 [IN10864-034.P1] |  | +++ (+++ means <200 nM) |

| SMILES | SC100 | SC100 (μM) |
| --- | --- | --- |
| Cc1csc(-c2nc(NC3CCC(F)(F)CC3)cc(N3CCOC(C)(C)C3)n2)n1 [IN10864-043-P1] |  | +++ (+++ means <200 nM) |
| COCC1CN(c2cc(NC3CCC(F)(F)CC3)nc(-c3nc(C)cs3)n2)CCN1C (centres unmarked) [IN10864-060-P1] |  | +++ (+++ means <200 nM) |
| Cc1csc(-c2nc(NC3CCC(F)(F)CC3)cc(N3CCN(C)C(CO)C3)n2)n1 (centres unmarked) [IN10864-066-P1] |  | ++ (++ means 200 nM-1000 nM) |
| COC1CCCN(c2cc(NC3CCC(F)(F)CC3)nc(-c3nc(C)cs3)n2)C1 (centres unmarked) [IN10876-013-P1] |  | ++ (++ means 200 nM-1000 nM) |
| CC(=O)c1cc(NC2CCC(F)(F)CC2)nc(-n2ccc(C)n2)n1 [IN10876-041-P2] |  | + (+ means >1 uM) |
| Cc1ccn(-c2nc(NC3CCC(F)(F)CC3)cc(C(C)O)n2)n1 (centres unmarked) [IN10876-051-P1] |  | + (+ means >1 uM) |
| CCOC(C)c1cc(NC2CCC(F)(F)CC2)nc(-n2ccc(C)n2)n1 (centres unmarked) [IN10876-061-P1, N-(4,4-difluorocyclohexyl)-6-(1-ethoxyethyl)-2-(3-methyl-1H-pyrazol-1-yl)pyrimidin-4-amine] |  | + (+ means >1 uM) |
| Cc1ccn(-c2nc(NC3CCC(F)(F)CC3)cc(C(C)(F)F)n2)n1 [IN10876-069-P1, N-(4,4-difluorocyclohexyl)-6-(1,1-difluoroethyl)-2-(3-methyl-1H-pyrazol-1-yl)pyrimidin-4-amine] |  | + (+ means >1 uM) |
| Cc1ccn(-c2nc(NC3CCC(F)(F)CC3)cc(C(C)F)n2)n1 (centres unmarked) [IN10876-080-P1, N-(4,4-difluorocyclohexyl)-6-(1-fluoroethyl)-2-(3-methyl-1H-pyrazol-1-yl)pyrimidin-4-amine] |  | + (+ means >1 uM) |
| Cc1csc(-c2nc(NC3CCC(F)(F)CC3)cc(C(C)(F)F)n2)n1 [IN10876-082-P1, N-(4,4-difluorocyclohexyl)-6-(1,1-difluoroethyl)-2-(4-methylthiazol-2-yl)pyrimidin-4-amine] |  | + (+ means >1 uM) |
| Cc1csc(-c2nc(NC3CCC(F)(F)CC3)cc(C(C)F)n2)n1 (centres unmarked) [IN10876-092-P1, N-(4,4-difluorocyclohexyl)-6-(1-fluoroethyl)-2-(4-methylthiazol-2-yl)pyrimidin-4-amine] |  | ++ (++ means 200 nM-1000 nM) |
| Cc1csc(-c2nc(NC3CCC(F)(F)CC3)cc(N3CCN(C)CC3)n2)n1 [IN10880-014-P1] |  | ++ (++ means 200 nM-1000 nM) |
| CCC1CN(c2cc(NC3CCC(F)(F)CC3)nc(-c3nc(C)cs3)n2)CCO1 (centres unmarked) [IN10880-018-P1] |  | ++ (++ means 200 nM-1000 nM) |
| Cc1csc(-c2nc(C#N)cc(NC3CCC(F)(F)CC3)n2)n1 [IN10880-029-P1] |  | + (+ means >1 uM) |
| CC(=O)NC1CCN(c2cc(NC3CCC(F)(F)CC3)nc(-c3nc(C)cs3)n2)CC1 [IN10880-032-P1] |  | ++ (++ means 200 nM-1000 nM) |
| Cc1csc(-c2nc(NC3CCC(F)(F)CC3)cc(N3CCOC(CNC(=O)OC(C)(C)C)C3)n2)n1 (centres unmarked) [IN10880-033-P1] |  | ++ (++ means 200 nM-1000 nM) |
